Legend:
Assay type in all cases: cell-based
[1] = target: cannabinoid receptor 2 (CB2) (Homo sapiens, UniProt P34972); test: agonist effect on cannabinoid receptor, cAMP measurement; conditions: CB2, concentration-response graph
Description: The efficacy was evaluated by measuring the amount of cyclic adenosine monophosphate (cAMP) generated from adenosine triphosphate (ATP) through the activation of adenylyl cyclase, which is triggered by G-protein alpha (G-protein a) as part of the stepwise signal transduction pathway initiated upon the binding of the test sample to the receptor. The efficacy was evaluated by measuring the amount of cyclic adenosine monophosphate (cAMP) generated from adenosine triphosphate (ATP) through G-protein alpha (G-protein a), which is activated by the binding of the sample to the receptor as part of the stepwise signal transduction pathway, and adenylyl cyclase, which is activated by G-protein a.

[2] = test system: IL-1β production in LPS-treated RAW 264.7 cells; test: pro-inflammatory cytokine production, ELISA; conditions: reference inhibitor, concentration not given, 24 h
Description: (§1) RAW 264.7 cells were dispensed into a 24-well plate at a density of […], incubated for 24 hours, and then treated with a non-cytotoxic concentration of the sample and LPS ([…]), followed by an additional 24-hour incubation. The cell culture was centrifuged at 5,000 rpm for 5 minutes, and the supernatant was collected. The levels of […] (FIG. 88), IL-6 (FIG. 89), and TNF-α (FIG. 90) were then measured using an ELISA kit according to the manufacturer's instructions.

[3] = test system: IL-6 production in LPS-treated RAW 264.7 cells; test: pro-inflammatory cytokine production, ELISA; conditions: reference inhibitor, concentration not given, 24 h
Description: as §1

[4] = test system: TNF-α production in LPS-treated RAW 264.7 cells; test: pro-inflammatory cytokine production, ELISA; conditions: reference inhibitor, concentration not given, 24 h
Description: as §1

Sequence of cannabinoid receptor 2 (CB2) (P34972 whole entry): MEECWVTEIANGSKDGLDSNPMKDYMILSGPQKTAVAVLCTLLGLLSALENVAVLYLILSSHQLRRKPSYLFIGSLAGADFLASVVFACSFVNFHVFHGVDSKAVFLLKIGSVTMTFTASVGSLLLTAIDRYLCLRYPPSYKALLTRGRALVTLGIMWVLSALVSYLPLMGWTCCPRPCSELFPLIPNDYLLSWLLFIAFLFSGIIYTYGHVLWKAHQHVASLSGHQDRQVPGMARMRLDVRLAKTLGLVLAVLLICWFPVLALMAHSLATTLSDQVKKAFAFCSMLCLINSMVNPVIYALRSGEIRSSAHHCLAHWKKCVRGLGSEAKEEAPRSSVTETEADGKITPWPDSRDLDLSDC

SMILES | Graph Min [1] | decrease of IL-1β production [2] | decrease of IL-6 production [3] | decrease of TNF-α production [4]
CCCCCCC(C)(C)c1ccc([C@@H]2C[C@H](O)CC[C@H]2CCCO)c(O)c1 [CP55940] | 5.4524 | – | – | –
N.S=C(S)N1CCCC1 [APDTC] | – | 45.39% | 47.12% | 20.28%

From US20260199267A1, “METHOD FOR PREPARING ENDO-C[…] FROM VEGETABLE OILS USING LIPASE AND USE THEREOF” (KOREA RESEARCH INSTITUTE OF BIOSCIENCE AND BIOTECHNOLOGY, priority 2022, published 2026)
